# In US6256527A, “Method for determining oxygen concentration” (Nycomed Imaging AS, priority 1995, dated 2001):
# How the values were obtained:
# Assay type in all cases: physicochemical
# [1] = Overhauser enhancement of trityl radicals (synthesis examples)
# [2] = ESR linewidth of trityl radicals (synthesis examples); settings: singlet
# [3] = Stability measurements: half life without exclusion of air
# [4] = Oximetric calibration by X-band ESR (9 GHz), oxygen broadening; settings: plasma, 37° C., X-band 9 GHz
# Method: Oximetric calibrations were made for the perdeuterated trityl and the non-deuterated hydroxy trityl in water and plasma at 37° C. with ESR in the X-band at 9 GHz. The experiment was performed on a Varian X-band spectrometer with temperature controller. A thermocouple was placed near the microwave cavity for accurate determination of the temperature. The samples were placed in thin wall teflon capillaries for rapid equilibration with a flowing gas mixture. A Sensormedics Oxygen Analyzer OM-11 was used to determine the oxygen percentage in the flowing gas. The gas pressure for temperature control and oxygenation was maintained at 20 psi. The linewidth and the saturation of the electron spin resonance was measured. Fremys salt was chosen as a B1 calibration standard and a conversion factor of 38.6±0.2 mG/mW was obtained.
# The results are shown in FIGS. 2 and 3 which give the linewidth as a function of oxygen concentration. The oxygen broadening of the perdeuterated trityl in plasma at 37° C. is 583 mG/mMo2 .
# [5] = DNP (Overhauser) enhancement and DNP-curve relaxivity at infinite concentration and power; settings: for A. (enhancement at infinite concentration and power): water
# Description: The calibration data are generated by determining Overhauser enhancement values for the radical in the selected body fluid, at the selected temperature and at a range of oxygen (and preferably also radical) concentrations. The intrinsic esr relaxation times for the radical can be determined, under the same conditions, using a conventional esr spectrometer equipped with a temperature controller, with oxygen concentration being determined using the method of Ravin et al J. Appl. Physiol. 18:784-790(1964), a method known to produce accurate and reproducible results.
# (§1) The following four water soluble, single ESR line trityls were investigated by NMRD, Dynamic Nuclear Polarisation (DNP) and ESR (Examples 1-4).
# (§2) The relaxivity and DNP enhancement data were measured in water, plasma and blood at 23° C. and 37° C. The results are set out in Tables 1 and 2.
# [6] = Relaxivity from NMRD profiles in water, plasma and blood; settings: for Relaxivity: water
# Method: as §1, §2
# [7] = Electron spin relaxation rates (radical concentration dependent) from CW ESR spectra and DNP data
# Method: as §1
# Electron spin relaxation rates were measured by analysis of CW ESR spectra and DNP data at 23° C. and 37° C. in water, isotonic saline, plasma and blood for the deuterated hydroxy trityl and in water and isotonic saline for the perdeuterated and symmetric trityl.
# [8] = Oxygen sensitivity at 260 MHz by ESR and DNP in water and blood; settings: for Lorentzian line broadening by oxygen: 260 MHz
# Method: The oxygen sensitivity of the deuterated hydroxy trityl was examined at 260 MHz in water and blood at 23° C. and 37° C. by ESR and DNP. The desired oxygen partial pressures were obtained in a simple shaking tonometer. The sample of 1-2 ml volume was shaken with a water saturated gas mixture flowing slowly above the sample for 5 min. The sample and gas was in a water bath maintaining the temperature. The gas mixtures were of high purity, chemically analysed. The Lorentzian line broadenings are 511 and 369 mG/mMo2 in water at 37° C. and 23° C. respectively and 329 mG/mMo2 in blood at 23° C.
# [9] = water (isotonic saline), 23° C.
# [10] = water (isotonic saline), 37° C.
substance,measurement,setting,value
"Bis(8-carboxy-2,2,6,6-tetra(hydroxymethyl)benzo[2-d: 4,5-d']bis(1,3)dithiol-4-yl)-mono(8-carboxy-2,2,6,6-tetramethylbenzo[2-d: 4,5-d']-bis(1,3)dioxol-4-yl)) methyl sodium salt [Example 27]",Overhauser enhancement,"[1]; 3.4 mM in H2 O, 5 W microwave power",164
same,ESR Line width,"[2]; 3.4 mM in H2 O, 200 G",120 mg
same,Half life,[3]; in water without exclusion of air,5 days
"Bis(8-ethoxycarbonyl-2,2,6,6-tetra(hydroxymethyl)benzo[1,2-d: 4,5-d']bis(1,3)dithiol-4-yl)-mono(8-ethoxycarbonyl-2,2,6,6-tetramethylbenzo[1,2-d:4,5-d']-bis(1,3)dioxol-4-yl))methyl [Example 26]",ESR Line width,"[2]; H2 O, 200 G",433 mg
"Bis-(8-ethoxycarbonyl-2,2,6,6-tetramethylbenzo[1,2-d: 4,5-d']-bis(1,3)dithiole-4-yl)-mono-(8-ethoxycarbonyl-2,2,6,6-tetramethylbenzo[1,2-d:4,5-d']-bis(1,3)dioxol-4-yl)methyl [Example 19]",Overhauser enhancement,"[1]; THF, 2.1 mM, 4 W microwave power",156
same,ESR Line width,"[2]; THF, 200 G",325 mg
same,Half life,[3]; in acetonitrile without exclusion of air,83.33 days
"Bis-(8-potassium carboxylate-2,2,6,6-tetramethylbenzo [1,2-d:4 5-d']-bis(1,3)dithiol-4-yl)-mono-(8-potassium carboxylate-2,2,6,6-tetramethylbenzo[1,2-d:4,5-d']-bis (1,3)dioxol-4-yl)methyl [Example 20]",Overhauser enhancement,"[1]; H2 O, 6.9 mM, 0.012 W microwave power",219
same,ESR Line width,"[2]; H2 O, 200 G",105 mg
"Bis-(8-sodium carboxylate-2,2,6,6-tetrakis-(^2 H3 methyl)-benzo[1,2-d:4,5-d']-bis(1,3)-dithiole-4-yl)-mono-(8-sodium carboxylate-2,2,6,6-tetrakis-(^2 H3 -methyl)-benzo[1,2-d:4,5-d']-bis(1,3)-dioxole-4-yl) methyl [perdeuterated trityl]",oxygen broadening,[4],583 mG/mMo2
same,A. (enhancement at infinite concentration and power),[5],267
same,Relaxivity,[6]; 23° C.,0.19 mM⁻¹ s⁻¹
same,Relaxivity,[6]; 37° C.,0.14 mM⁻¹ s⁻¹
same,"2(3γe T1e)^-1, concentration dependent relaxation rate (peak-to-peak)",[7]; [9],10.6 ± 0.8 mg/mM
same,"2(3γe T2e)^-1, concentration dependent relaxation rate (peak-to-peak)",[7]; [9],24.3 ± 0.8 mg/mM
same,"2(3γe T1e)^-1, concentration dependent relaxation rate (peak-to-peak)",[7]; [10],12.9 ± 0.3 mg/mM
same,"2(3γe T2e)^-1, concentration dependent relaxation rate (peak-to-peak)",[7]; [10],28.2 ± 1.2 mg/mM
"Bis-(8-sodium carboxylate-2,2,6,6-tetrakis-(hydroxy-^2 H2 -methyl)-benzo[1,2-d:4,5-d']-bis(1,3) dithiole-4-yl)-mono-(8-sodium carboxylate-2,2,6,6-tetramethylbenzo [1,2-d:4,5-d']-bis(1,3) dioxole-4-yl)methyl [deuterated hydroxy trityl]",T1 i.e. proton relaxivity,"[5]; blood sample, 37° C.",0.44 mM⁻¹ s⁻¹
same,maximum Overhauser enhancement (i.e. at infinite VHF power and infinite radical concentration),"[5]; blood sample, 37° C.",192
same,"A. (infinite concentration and power), DNP enhancement","[5]; blood, 37° C.",192
same,Relaxivity at infinite concentration and power,"[5]; blood, 37° C.",0.44 mM⁻¹ s⁻¹
same,"A. (infinite concentration and power), DNP enhancement","[5]; plasma, 37° C.",231
same,Relaxivity at infinite concentration and power,"[5]; plasma, 37° C.",0.32 mM⁻¹ s⁻¹
same,A. (enhancement at infinite concentration and power),[5],278
same,Relaxivity at 400kHz,"[6]; blood, 23° C.",0.53 mM⁻¹ s⁻¹
same,Relaxivity at 400kHz,"[6]; blood, 37° C.",0.44 mM⁻¹ s⁻¹
same,Relaxivity at 400kHz,"[6]; plasma, 23° C.",0.48 mM⁻¹ s⁻¹
same,Relaxivity at 400kHz,"[6]; plasma, 37° C.",0.45 mM⁻¹ s⁻¹
same,Relaxivity,[6]; 23° C.,0.26 mM⁻¹ s⁻¹
same,Relaxivity,[6]; 37° C.,0.20 mM⁻¹ s⁻¹
same,"2(3γe T1e)^-1, concentration dependent relaxation rate (peak-to-peak)","[7]; blood, 37° C.",3.6 ± 0.5 mg/mM
same,"2(3γe T2e)^-1, concentration dependent relaxation rate (peak-to-peak)","[7]; blood, 37° C.",21.5 ± 0.5 mg/mM
same,"2(3γe T1e)^-1, concentration dependent relaxation rate (peak-to-peak)","[7]; plasma, 37° C.",2.7 ± 0.5 mg/mM
same,"2(3γe T2e)^-1, concentration dependent relaxation rate (peak-to-peak)","[7]; plasma, 37° C.",9.8 ± 0.5 mg/mM
same,"2(3γe T1e)^-1, concentration dependent relaxation rate (peak-to-peak)",[7]; [9],2.6 ± 0.1 mg/mM
same,"2(3γe T2e)^-1, concentration dependent relaxation rate (peak-to-peak)",[7]; [9],11.1 ± 0.5 mg/mM
same,"2(3γe T1e)^-1, concentration dependent relaxation rate (peak-to-peak)",[7]; [10],2.8 ± 0.2 mg/mM
same,"2(3γe T2e)^-1, concentration dependent relaxation rate (peak-to-peak)",[7]; [10],8.0 ± 0.2 mg/mM
same,"2(3γe T1e)^-1, relaxation rate as a function of oxygen concentration (peak-to-peak)","[8]; blood, 23° C.",250 mg/mM
same,"2(3γe T2e)^-1, relaxation rate as a function of oxygen concentration (peak-to-peak)","[8]; blood, 23° C.",329 mg/mM
same,"(γe T1e +L T2e)^-1, square root of slope of the inverse DNP curve: constant term","[8]; blood, 23° C.",12.9 mg/mM
same,Lorentzian line broadening by oxygen,"[8]; blood, 23° C.",329 mG/mMo2
same,"2(3γe T1e)^-1, relaxation rate as a function of oxygen concentration (peak-to-peak)","[8]; blood, 37° C.",330 mg/mM
same,"2(3γe T2e)^-1, relaxation rate as a function of oxygen concentration (peak-to-peak)","[8]; blood, 37° C.",428 mg/mM
same,"(γe T1e +L T2e)^-1, square root of slope of the inverse DNP curve: constant term","[8]; blood, 37° C.",15.0 mg/mM
same,"2(3γe T1e)^-1, relaxation rate as a function of oxygen concentration (peak-to-peak)","[8]; water, 23° C.",301 mg/mM
same,"2(3γe T2e)^-1, relaxation rate as a function of oxygen concentration (peak-to-peak)","[8]; water, 23° C.",369 mg/mM
same,"(γe T1e +L T2e)^-1, square root of slope of the inverse DNP curve: constant term","[8]; water, 23° C.",13.4 mg/mM
same,Lorentzian line broadening by oxygen,"[8]; water, 23° C.",369 mG/mMo2
same,"2(3γe T1e)^-1, relaxation rate as a function of oxygen concentration (peak-to-peak)","[8]; water, 37° C.",398 mg/mM
same,"2(3γe T2e)^-1, relaxation rate as a function of oxygen concentration (peak-to-peak)","[8]; water, 37° C.",511 mg/mM
same,"(γe T1e +L T2e)^-1, square root of slope of the inverse DNP curve: constant term","[8]; water, 37° C.",14.2 mg/mM
same,Lorentzian line broadening by oxygen,"[8]; water, 37° C.",511 mG/mMo2
"Tris(8-carboxy-2,2,6,6-tetrahydroxymethylbenzo[1,2-d: 4,5-d']bis(1,3)dithiole-4-yl)methyl sodium salt [Example 14]",ESR Line width,"[2]; 1.5 mM in H2 O, 100 G",100 mg
